# Measured values reported in patent US20120058989A1, “ANTIBACTERIAL FLUOROQUINOLONE ANALOGS” (Achaogen, Inc., priority 2008, published 2012).
# Experiments:
# Assay in all cases: MIC, CLSI broth microdilution
# Format in all cases: cell-based
# [1] = system: P. aeruginosa APAE054 (Fluoroquinolone-resistant)
# How it was run: (§1)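 Test compounds were diluted two-fold at 2× strength in Mueller Hinton Broth, then combined 1:1 with saline-suspended bacteria from an overnight agar colony to reach 5×10^5 CFU/mL. Incubation followed at 35° C. for 20 hours in ambient air, per CLSI reference methods.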
# [2] = system: S. aureus ASAU001 (Fluoroquinolone-susceptible, ATCC29213)
# How it was run: as §1
# [3] = system: A. baumannii AABA1065 (Fluoroquinolone-susceptible)
# How it was run: as §1
# [4] = system: A. baumannii AABA1009 (Fluoroquinolone-resistant); conditions: Table 2
# How it was run: as §1
# [5] = system: A. baumannii AABA1020 (Fluoroquinolone-resistant); conditions: Table 3
# How it was run: as §1
# [6] = system: P. aeruginosa APAE001 (Fluoroquinolone-susceptible, ATCC27853)
# How it was run: as §1
# [7] = system: S. aureus ASAU1033 (Fluoroquinolone-resistant); conditions: Table 3
# How it was run: as §1
# [8] = system: S. pneumoniae ASPN1018 (Fluoroquinolone-resistant); conditions: Table 3
# How it was run: as §1
# [9] = system: S. pneumoniae ASPN001 (Fluoroquinolone-susceptible, ATCC49619)
# How it was run: as §1
# [10] = system: E. coli AECO086 (Fluoroquinolone-resistant); conditions: Table 3
# How it was run: as §1
# [11] = system: S. pneumoniae ASPN002 (Fluoroquinolone-susceptible, ATCC10813); conditions: Table 3
# How it was run: as §1
# [12] = system: S. aureus ASAU1031 (Fluoroquinolone-resistant)
# How it was run: as §1
# [13] = system: S. pneumoniae ASPN1027 (Fluoroquinolone-resistant)
# How it was run: as §1
# [14] = system: E. coli AECO066 (Fluoroquinolone-resistant)
# How it was run: as §1
# [15] = system: E. coli AECO001 (Fluoroquinolone susceptible, ATCC25922)
# How it was run: as §1
# [16] = system: S. aureus ASAU002 (Fluoroquinolone-susceptible, ATCC33591 (MRSA)); conditions: Table 3
# How it was run: as §1
# [17] = system: P. aeruginosa APAE002 (Fluoroquinolone susceptible); conditions: Table 3
# How it was run: as §1
# [18] = system: E. coli AECO002 (Fluoroquinolone susceptible); conditions: Table 3
# How it was run: as §1
MIC APAE 054 ([1]; Table 2),MIC APAE 054 ([1]; Table 3),MIC ASAU 001 ([2]; Table 2),MIC ASAU 001 ([2]; Table 3),MIC AABA 1065 ([3]; Table 2),MIC AABA 1065 ([3]; Table 3),MIC AABA1020 [5],MIC APAE 001 ([6]; Table 2),MIC APAE 001 ([6]; Table 3),MIC ASAU1033 [7],MIC ASPN1018 [8],MIC ASPN 001 ([9]; Table 2),MIC ASPN 001 ([9]; Table 3),MIC AECO086 [10],MIC ASPN002 [11],MIC ASAU 1031 ([12]; Table 3),MIC ASPN 1027 ([13]; Table 3),Structure (SMILES),MIC AABA 1009 [4],MIC ASAU 1031 ([12]; Table 2),MIC ASPN 1027 ([13]; Table 2),also measured
C (MIC's of greater than 8.0 μg/mL = C),D (MIC's of greater than 8.0 μg/mL = D),A (MIC's of 1.0 μg/mL or less = A),A (MIC's of less than 1.0 = A),A (MIC's of 1.0 μg/mL or less = A),A (MIC's of less than 1.0 = A),C (MIC's of 2.0 μg/mL to 8.0 μg/mL = C),A (MIC's of 1.0 μg/mL or less = A),A (MIC's of less than 1.0 = A),B (MIC's of 1.0 μg/mL to 2.0 μg/mL = B),A (MIC's of less than 1.0 = A),A (MIC's of 1.0 μg/mL or less = A),A (MIC's of less than 1.0 = A),B (MIC's of 1.0 μg/mL to 2.0 μg/mL = B),A (MIC's of less than 1.0 = A),A (MIC's of less than 1.0 = A),A (MIC's of less than 1.0 = A),"N[C@@H]1CCN2c3c(F)cc4c(=O)c(C(=O)O)cn(C5CC5)c4c3C=CC[C@H]12.O=C(O)C(F)(F)F [16/16, (7aR,8R)-8-Amino-4-cyclopropyl-12-fluoro-1-oxo-4,7,7a,8,9,10-hexahydro-1H-pyrrolo[1′,2′:1,7]azepino[2,3-h]quinoline-2-carboxylic acid trifluoroacetate]",B (MIC's of greater than 1.0 μg/mL to 8.0 μg/mL = B),A (MIC's of 1.0 μg/mL or less = A),B (MIC's of greater than 1.0 μg/mL to 8.0 μg/mL = B),"MIC AECO 066 ([14]; Table 2): B (MIC's of greater than 1.0 μg/mL to 8.0 μg/mL = B); MIC AECO 066 ([14]; Table 3): C (MIC's of 2.0 μg/mL to 8.0 μg/mL = C); MIC AECO 001 ([15]; Table 2, 35° C., 20 hours): A (MIC's of 1.0 μg/mL or less = A); MIC AECO 001 ([15]; Table 3): A (MIC's of less than 1.0 = A); MIC ASAU002 [16]: A (MIC's of less than 1.0 = A); MIC APAE002 [17]: A (MIC's of less than 1.0 = A); MIC AECO002 [18]: A (MIC's of less than 1.0 = A)"
C (MIC's of greater than 8.0 μg/mL = C),D (MIC's of greater than 8.0 μg/mL = D),A (MIC's of 1.0 μg/mL or less = A),A (MIC's of less than 1.0 = A),A (MIC's of 1.0 μg/mL or less = A),A (MIC's of less than 1.0 = A),D (MIC's of greater than 8.0 μg/mL = D),A (MIC's of 1.0 μg/mL or less = A),A (MIC's of less than 1.0 = A),C (MIC's of 2.0 μg/mL to 8.0 μg/mL = C),B (MIC's of 1.0 μg/mL to 2.0 μg/mL = B),A (MIC's of 1.0 μg/mL or less = A),A (MIC's of less than 1.0 = A),C (MIC's of 2.0 μg/mL to 8.0 μg/mL = C),A (MIC's of less than 1.0 = A),A (MIC's of less than 1.0 = A),A (MIC's of less than 1.0 = A),"NC1CCN2c3c(F)cc4c(=O)c(C(=O)O)cn(C5CC5)c4c3CCCC12.O=C(O)C(F)(F)F [16/18, (7aR,8R)-8-Amino-4-cyclopropyl-12-fluoro-1-oxo-4,5,6,7,7a,8,9,10-octahydro-1H-pyrrolo[1′,2′:1,7]azepino[2,3-h]quinoline-2-carboxylic acid trifluoroacetate]",B (MIC's of greater than 1.0 μg/mL to 8.0 μg/mL = B),B (MIC's of greater than 1.0 μg/mL to 8.0 μg/mL = B),B (MIC's of greater than 1.0 μg/mL to 8.0 μg/mL = B),"MIC AECO 066 ([14]; Table 2): B (MIC's of greater than 1.0 μg/mL to 8.0 μg/mL = B); MIC AECO 066 ([14]; Table 3): C (MIC's of 2.0 μg/mL to 8.0 μg/mL = C); MIC AECO 001 ([15]; Table 2, 35° C., 20 hours): A (MIC's of 1.0 μg/mL or less = A); MIC AECO 001 ([15]; Table 3): A (MIC's of less than 1.0 = A); MIC ASAU002 [16]: A (MIC's of less than 1.0 = A); MIC APAE002 [17]: A (MIC's of less than 1.0 = A); MIC AECO002 [18]: A (MIC's of less than 1.0 = A)"
